Like-named read-outs stand apart in the source and are kept apart here.
Columns and labels:
MC3T3-E1 cells [1] = experiment: SA-β-gal staining of senescent cells; type: cell-based, mouse
Description: Senescence Associated-β-Galactosidase (SA-β-gal) Staining
SA-β-gal staining was performed with reference to the paper (2009) published by the Debacq-Chainiaux group. Cells cultured on coverslips were fixed in 4% paraformaldehyde at room temperature for 6 min. After washing cells three times with PBS, the cells were reacted for 16-24 hours in a staining solution [40 mM Na2HPO4, pH 6.0, 150 mM NaCl, 2 mM MgCl2, 5 mM K3Fe(CN)6, 5 mM K4Fe(CN)6 and 1 mg/ml X-Gal]. After washing 3 times with PBS, it was permeabilized with PBS containing 0.2% Triton X-100 at room temperature for 15 minutes. For nuclear staining, a mounting solution containing 4′,6-diamidino-2-phenylindole (DAPI) was used (AR-6501-01; ImmunoBioScience Corp., Mukilteo, Wash., USA). Images were acquired using an Eclipse TS-100 inverted microscope (Nikon). Using the ImageJ program, nucleus (DAPI) and SA-b-gal positive cells were counted in each image and compared as an average of % SA-β-gal positive cells (SA-β-gal positive cells/nuclear number×100) using the ImageJ program using 10 images of different parts per group.

p21 = settings: MC3T3-E1 cells, H2O2 treatment
Description: (§2) Protein was extracted using a PRO-PREP protein extraction solution (Cat #17081, iNtRON, Korea) according to a manufacturer's protocol. The same amount of protein was transferred to a polyvinylidene fluoride (PVDF) membrane after sodium dodecyl sulfate polyacrylamide gel electrophoresis (SDS-PAGE). After blocking with 5% non-fat milk, membranes were blotted in primary antibody solution at 4° C. in a refrigerator overnight. A membrane reacted with a primary antibody was washed 3 times every 5 minutes with PBS-0.05% Tween 20 solution, then reacted with a secondary antibody for 1-2 hours at room temperature, and then the membrane was washed 3 times with PBS-0.05% Tween 20 solution for 5 minutes. Thereafter, the images were acquired on an ImageQuant LAS4000 Mini (GE Healthcare) using chemiluminescence (Clarity™ Western ECL Substrate, #170-5060; Bio-Rad). α-Tubulin or β-actin was used as a protein loading control.

Cdkn1a (p21) mRNA = experiment: RT-qPCR of senescence marker Cdkn1a; type: cell-based, mouse
Source text: (§1) RNA Preparation and Quantitative Real-Time PCR (RT-qPCR)

[2] = test system: CCL2, CCL5, and CCL7 mRNA; experiment: RT-qPCR of SASP factors CCL2, CCL5, CCL7; type: cell-based, mouse
Source text: as §1

MC3T3-E1 cells [3] = experiment: Osteoblast differentiation by ALP and Alizarin Red S staining; type: cell-based, mouse
Source text: In addition, it was shown that and a level of protein and an expression of cdkn1a (p21) mRNA which is a molecular marker of cellular senescence, were increased by H2O2 treatment (B and C).

PADI2 [4] = experiment: PADI2 expression (RT-qPCR, Western blot) in MC3T3-E1 cells; type: cell-based, mouse
Source text: as §1

[5] = test system: NFκB RelA transcription factor; settings: MC3T3-E1 cells, 100 μM H2O2 for 24 h
Description: After collecting cells with PBS, a cell pellet was equally divided into two tubes for whole-cell lysate and cell fractionation. The whole-cell lysate prepared with 100 μL of lysis buffer composed of 25 mM Tris-HCl pH 7.4, 150 mM NaCl, 1% NP-40, 1 mM EDTA, 5% glycerol, protease inhibitor cocktail (Roche, #11-836-153-001), phosphatase inhibitor cocktail 2 and 3 (Sigma-Aldrich, P5726 and P004 SEQ ID NO: 4). The nuclear-cytoplasmic fraction was isolated using NEPER™ nuclear and cytoplasmic extraction reagents (78855; Life Technologies, Carlsbad, Calif., USA) according to a manufacturer's protocol. Protein concentration was determined using the Pierce™ BCA Protein Assay Kit (Thermo Fisher Scientific). The whole-cell lysate, a cytoplasmic extract and a nuclear extract were separated by SDS-PAGE, transferred to PVDF membrane, and then Western blot analysis was performed with designated primary and secondary antibodies. Tubulin and Lamin A/C were used as cytoplasmic and nuclear markers, respectively.
Cells cultured on coverslips were fixed in 4% paraformaldehyde, blocked with PBS containing 2% BSA, and then reacted in a refrigerator overnight in a primary antibody solution. […] A degree of fluorescence expression was observed using a confocal microscope (LSM 800, Carl Zeiss), and representative cells were selected and photographed.

PADI2 [6] = settings: human-derived mesenchymal stromal cells (hMSC), 100 μM H2O2
Description: as §2
Total RNA was isolated using the RNeasy Mini Kit (Qiagen, Hilden, Germany). Total RNA (1 μg) was reverse transcribed into cDNA using PrimeScript RT Master Mix (Perfect Real Time) (RR036A; TaKaRa, Japan) and a real-time PCR was performed on an STEPONEPLUS™ Real-Time PCR System (APPLIED BIOSYSTEMS™) instr μMent using TB GREEN® PREMIX EX TAQ™ (RR420A; TaKaRa). […]

[7] = 1 μM Bay11-7082 co-treated with 100 μM H2O2
[8] = Padi2 knockdown plus NFκB inhibition

SMILES: OO [H2O2, hydrogen peroxide]
- number of SA-β-gal positive cells (MC3T3-E1 cells [1]; MC3T3-E1 cells, 50 μM or 100 μM H2O2 for 3 days): increased in a H2O2 concentration-dependent manner
- level of p21 protein (p21): increased
- expression of cdkn1a (p21) mRNA (Cdkn1a (p21) mRNA; MC3T3-E1 cells, H2O2 treatment): increased
- CCL2, CCL5, and CCL7 in SASP (RNA-seq and RT-qPCR) ([2]; upon H2O2 treatment): significantly increased
- osteoblast differentiation function (ALP and Alizarin Red S staining) (MC3T3-E1 cells [3]; MC3T3-E1 cells, excessive ROS (H2O2)): significantly inhibited
- Padi2 mRNA level (PADI2 [4]; MC3T3-E1 cells, 100 μM H2O2 for 1, 4, and 7 days in differentiation medium, RT-qPCR): significantly reduced
- expression of PADI2 (mRNA level and protein level) (PADI2 [4]; mouse-derived MC3T3-E1 cells, 100 μM H2O2): significantly reduced
- NFκB RelA activation and transfer from cytoplasm to nucleus [5]: migration to the nucleus was observed
- expression of PADI2 (mRNA level and protein level) (PADI2 [6]): significantly reduced

SMILES: Cc1ccc(S(=O)(=O)/C=C/C#N)cc1 [Bay11-7082]
- number of senescent cells increased by H2O2 alone (MC3T3-E1 cells [1]; [7]): reduced
- number of senescent cells increased by Padi2 knockdown (MC3T3-E1 cells [1]; [8]): decreased
- expression of Cdkn1a (Cdkn1a (p21) mRNA; [7]): reduced
- Cdkn1a expression increased by Padi2 knockdown (Cdkn1a (p21) mRNA; [8]): decreased
- expressions of CCL2, CCL5, and CCL7 (mRNA levels) increased by H2O2 ([2]; combined with H2O2 treatment): significantly reduced
- function degradation of osteoblast (ALP and ARS staining) (MC3T3-E1 cells [3]; caused by excessive ROS and Padi2 knockdown): restored

From patent US20230203174A1, “COMPOSITION FOR PREVENTING OR ALLEVIATING CELLULAR SENESCENCE” (SEOUL NATIONAL UNIVERSITY R&DB FOUNDATION, priority 2021, published 2023)
